Measurements: article PMC7822065, “Discovery of indole-3-butyric acid derivatives as potent histone deacetylase inhibitors” (Journal of Enzyme Inhibition and Medicinal Chemistry, 2021)
Where two headings read alike, the source gives them in different places.

Key:
A2780 cells = assay: MTT antiproliferative assay, A2780; assay type: cell-based; settings: for IC50: Homo sapiens
Description: (§1) The stock solutions of tested compounds were diluted with culture medium. Briefly, the cells were seeded into each well of 96-well plate, which were incubated at 37 °C, 5% CO2 until confluency 90–95%. Then, the cells were treated with compound sample at various concentrations for 48 h. Afterward, […] working solution (5 mg/ml) was added to each well and incubated for another 4 h. After incubation, the […] formed from MTT was extracted by adding DMSO (200 µl). The optical density (OD) at 490 nm and 630 nm were measured by Universal Microplate Spectrophotometer. […] The IC50 values were calculated with Origin 7.5 software (Originlab Corporation, Northampton, MA), and standard deviations of the IC50 values were obtained through at least 3 independent experiments.
A series of tumour cell lines including the lung cancer A549, Calu-3, SPC-A-1, H322, H1299, breast cancer MDA-MB-231, MCF-7, MDA-MB-468, colon carcinoma LoVo, Colo205, ovarian cancer A2780, SKOV3, gastric cancer MKN45, pancreatic cancer PNAC-1, leukemic K562, and multiple myeloma OPM2 cells were cultured for the antiproliferative assay of active compound I13. In the present study, molecule I13 could inhibit the growth of both solid and haematologic tumour cell lines (Table 4). […]. The antiproliferative activity of molecule I13 was considered to be restricted by the poor enzyme inhibitory selectivity. Enhancement of selectivity could be a useful strategy to improve the anticancer activity of this group of HDACIs.

HepG2 xenograft = settings: for mean weight of tumours: n = 7
HepG2 cells [1] = assay: Annexin V/PI cell apoptosis assay (flow cytometry); settings: annexin V-FITC/PI
Description: After 10 min of incubation, 1 µl PI was added to each sample and mixed gently. After incubation at room temperature for another 20 min in the dark, cells were subjected to flow cytometer (CytoFLEX, Beckman Coulter, Brea, CA).

A549 cells = assay: MTT antiproliferative assay, A549; assay type: cell-based; settings: Homo sapiens, lung cancer
Description: as §1, with “Briefly, the cells were seeded into each well of 96-well plate, which were incubated at 37 °C, 5% CO2 until confluency 90–95%.” left out

Calu-3 cells = assay: MTT antiproliferative assay, Calu-3; assay type: cell-based; settings: Homo sapiens, lung cancer
Description: as §1, with “Briefly, the cells were seeded into each well of 96-well plate, which were incubated at 37 °C, 5% CO2 until confluency 90–95%.” left out

SPC-A-1 cells = assay: MTT antiproliferative assay, SPC-A-1; assay type: cell-based; settings: SPCA1, lung cancer
Description: as §1, with “Briefly, the cells were seeded into each well of 96-well plate, which were incubated at 37 °C, 5% CO2 until confluency 90–95%.” left out

H322 cells = assay: MTT antiproliferative assay, H322; assay type: cell-based; settings: NCI-H322, lung cancer
Description: as §1, with “Briefly, the cells were seeded into each well of 96-well plate, which were incubated at 37 °C, 5% CO2 until confluency 90–95%.” left out

H1299 cells = assay: MTT antiproliferative assay, H1299; assay type: cell-based; settings: Homo sapiens, NCI-H1299, lung cancer
Description: as §1, with “Briefly, the cells were seeded into each well of 96-well plate, which were incubated at 37 °C, 5% CO2 until confluency 90–95%.” left out

MDA-MB-231 cells = assay: MTT antiproliferative assay, MDA-MB-231; assay type: cell-based; settings: Homo sapiens, breast carcinoma
Description: as §1, with “Briefly, the cells were seeded into each well of 96-well plate, which were incubated at 37 °C, 5% CO2 until confluency 90–95%.” left out

MCF-7 cells = assay: MTT antiproliferative assay, MCF-7; assay type: cell-based; settings: Homo sapiens, MCF7, breast carcinoma
Description: as §1, with “Briefly, the cells were seeded into each well of 96-well plate, which were incubated at 37 °C, 5% CO2 until confluency 90–95%.” left out

MDA-MB-468 cells = assay: MTT antiproliferative assay, MDA-MB-468; assay type: cell-based; settings: Homo sapiens, breast carcinoma
Description: as §1, with “Briefly, the cells were seeded into each well of 96-well plate, which were incubated at 37 °C, 5% CO2 until confluency 90–95%.” left out

LoVo cells = assay: MTT antiproliferative assay, LoVo; assay type: cell-based; settings: Homo sapiens, colon carcinoma
Description: as §1, with “Briefly, the cells were seeded into each well of 96-well plate, which were incubated at 37 °C, 5% CO2 until confluency 90–95%.” left out

Colo205 cells = assay: MTT antiproliferative assay, Colo205; assay type: cell-based; settings: Homo sapiens, COLO 205, colon carcinoma
Description: as §1, with “Briefly, the cells were seeded into each well of 96-well plate, which were incubated at 37 °C, 5% CO2 until confluency 90–95%.” left out

SKOV3 cells = assay: MTT antiproliferative assay, SKOV3; assay type: cell-based; settings: Homo sapiens, SK-OV-3, ovarian cancer
Description: as §1, with “Briefly, the cells were seeded into each well of 96-well plate, which were incubated at 37 °C, 5% CO2 until confluency 90–95%.” left out

MKN45 cells = assay: MTT antiproliferative assay, MKN45; assay type: cell-based; settings: Homo sapiens, MKN-45, gastric cancer
Description: as §1, with “Briefly, the cells were seeded into each well of 96-well plate, which were incubated at 37 °C, 5% CO2 until confluency 90–95%.” left out

PNAC-1 cells = assay: MTT antiproliferative assay, PNAC-1; assay type: cell-based
Description: as §1, with “Briefly, the cells were seeded into each well of 96-well plate, which were incubated at 37 °C, 5% CO2 until confluency 90–95%.” left out

K562 cells = assay: MTT antiproliferative assay, K562; assay type: cell-based; settings: Homo sapiens, leukemia
Description: as §1, with “Briefly, the cells were seeded into each well of 96-well plate, which were incubated at 37 °C, 5% CO2 until confluency 90–95%.” left out

OPM2 cells = assay: MTT antiproliferative assay, OPM2; assay type: cell-based; settings: Homo sapiens, OPM-2, multiple myeloma
Description: as §1, with “Briefly, the cells were seeded into each well of 96-well plate, which were incubated at 37 °C, 5% CO2 until confluency 90–95%.” left out

Water solubility = assay type: physicochemical
U937 cells = assay: MTT antiproliferative assay, U937; settings: Homo sapiens, U-937, 48 h, read-out: U937 IC50
Description: (§2) The stock solutions of tested compounds were diluted with culture medium. […] Then, the cells were treated with compound sample at various concentrations for 48 h. Afterward, 20 MTT working solution (5 mg/ml) was added to each well and incubated for another 4 h. After incubation, the medium formed from MTT was extracted by adding DMSO (200 µl). The optical density (OD) at 490 nm and 630 nm were measured by Universal Microplate Spectrophotometer. […] The IC50 values were calculated with Origin 7.5 software (Originlab Corporation, Northampton, MA), and standard deviations of the IC50 values were obtained through at least 3 independent experiments.

U266 cells = assay: MTT antiproliferative assay, U266; settings: for IC50: Homo sapiens, U-266, 48 h, read-out: U266 IC50
Description: as §2
To evaluate the antiproliferative activity of hydroxamic acid containing molecules, MTT assays were performed using U937, U266, and HepG2 cell lines.

HepG2 cells [2] = assay: MTT antiproliferative assay, HepG2; settings: for IC50: Homo sapiens, HepG2, 48 h, read-out: HepG2 IC50
Description: as §2

[3] = test system: HDACs (HeLa nucleus extract containing a mixture of HDAC isoforms); assay: HDAC inhibitory assay with HeLa nucleus extract; settings: at the concentration of 1 µM
HDAC1 = HDAC1 (Homo sapiens, UniProt Q13547); assay: In vitro HDACs inhibitory assay, recombinant HDAC1
Description: (§3) All of the HDAC enzymes were purchased from BPS Bioscience (San Diego, CA). Briefly, 20 μl of HeLa nucleus extract or recombinant HDAC enzyme solution was mixed with various concentrations of tested compound (20 μl). The mixture was incubated at 30 °C for 1 h (for the time-dependent assay, the mixture was incubated for 15, 30, 60, and 90 min, respectively), then 10 μl of fluorogenic substrate (Boc-Lys (acetyl)-AMC (3 mM) for HDAC1, 2, 3, and 6, Boc-Lys (trifluoroacetyl)-AMC (3 mM) for HDAC 4, 7, 8, and 9) was added. After incubation at 30 °C for 2 h, the catalytic reaction was stopped by addition of 10 μl of developer containing trypsin and trichostatin A (TSA). After 30 min, fluorescence intensity was measured using a microplate reader at excitation and emission wavelengths of 360 and 460 nm, respectively. The inhibition ratios were calculated from the fluorescence intensity readings of tested wells relative to those of control wells, and the IC50 curves and values were determined by GraphPad Prism 6.0 software (La Jolla, CA).

HDAC2 = HDAC2 (Homo sapiens, UniProt Q92769); assay: In vitro HDACs inhibitory assay, recombinant HDAC2
Description: as §3

HDAC3 = HDAC3 (Homo sapiens, UniProt O15379); assay: In vitro HDACs inhibitory assay, recombinant HDAC3
Description: as §3

HDAC4 = HDAC4 (Homo sapiens, UniProt P56524); assay: In vitro HDACs inhibitory assay, recombinant HDAC4
Description: as §3

HDAC6 = HDAC6 (Homo sapiens, UniProt Q9UBN7); assay: In vitro HDACs inhibitory assay, recombinant HDAC6
Description: as §3

HDAC7 = HDAC7 (Homo sapiens, UniProt Q8WUI4); assay: In vitro HDACs inhibitory assay, recombinant HDAC7
Description: as §3

HDAC8 = HDAC8 (Homo sapiens, UniProt Q9BY41); assay: In vitro HDACs inhibitory assay, recombinant HDAC8
Description: as §3

HDAC9 = HDAC9 (Homo sapiens, UniProt Q9UKV0); assay: In vitro HDACs inhibitory assay, recombinant HDAC9
Description: as §3

[4] = 50 mg/kg/d intragastric, 16 days, HepG2 xenograft

Chain of HDAC6 (Q9UBN7 whole entry): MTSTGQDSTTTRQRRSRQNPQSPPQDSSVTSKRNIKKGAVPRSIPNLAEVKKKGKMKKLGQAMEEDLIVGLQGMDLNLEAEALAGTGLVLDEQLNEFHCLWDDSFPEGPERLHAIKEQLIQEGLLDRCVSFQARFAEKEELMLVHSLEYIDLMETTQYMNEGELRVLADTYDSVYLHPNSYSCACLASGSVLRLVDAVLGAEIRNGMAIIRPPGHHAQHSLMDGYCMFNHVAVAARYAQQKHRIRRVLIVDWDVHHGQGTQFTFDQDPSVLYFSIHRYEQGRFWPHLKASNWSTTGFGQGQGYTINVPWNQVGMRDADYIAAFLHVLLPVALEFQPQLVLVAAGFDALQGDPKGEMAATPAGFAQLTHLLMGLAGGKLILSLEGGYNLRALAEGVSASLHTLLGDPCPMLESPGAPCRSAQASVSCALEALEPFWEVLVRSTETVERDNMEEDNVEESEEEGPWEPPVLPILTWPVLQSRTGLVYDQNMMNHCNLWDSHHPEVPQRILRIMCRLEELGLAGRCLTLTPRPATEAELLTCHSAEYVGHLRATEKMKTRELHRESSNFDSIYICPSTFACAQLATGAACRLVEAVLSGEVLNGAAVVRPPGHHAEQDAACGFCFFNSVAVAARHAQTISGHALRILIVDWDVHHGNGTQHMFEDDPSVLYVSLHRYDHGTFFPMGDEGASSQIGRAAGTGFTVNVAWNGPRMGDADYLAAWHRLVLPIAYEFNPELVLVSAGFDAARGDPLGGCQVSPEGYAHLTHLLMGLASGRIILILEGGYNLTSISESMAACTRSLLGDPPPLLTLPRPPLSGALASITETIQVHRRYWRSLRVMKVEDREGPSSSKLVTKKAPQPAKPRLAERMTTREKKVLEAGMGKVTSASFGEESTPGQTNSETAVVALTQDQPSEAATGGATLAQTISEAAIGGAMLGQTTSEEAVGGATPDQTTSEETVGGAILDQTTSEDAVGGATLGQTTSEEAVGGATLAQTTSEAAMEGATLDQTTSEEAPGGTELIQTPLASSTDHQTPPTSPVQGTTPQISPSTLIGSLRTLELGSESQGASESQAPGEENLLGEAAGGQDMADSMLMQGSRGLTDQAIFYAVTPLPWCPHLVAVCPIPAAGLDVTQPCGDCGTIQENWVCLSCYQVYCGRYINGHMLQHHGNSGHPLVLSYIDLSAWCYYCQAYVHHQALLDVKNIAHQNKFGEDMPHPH
Chain of HDAC1 (Q13547 whole entry): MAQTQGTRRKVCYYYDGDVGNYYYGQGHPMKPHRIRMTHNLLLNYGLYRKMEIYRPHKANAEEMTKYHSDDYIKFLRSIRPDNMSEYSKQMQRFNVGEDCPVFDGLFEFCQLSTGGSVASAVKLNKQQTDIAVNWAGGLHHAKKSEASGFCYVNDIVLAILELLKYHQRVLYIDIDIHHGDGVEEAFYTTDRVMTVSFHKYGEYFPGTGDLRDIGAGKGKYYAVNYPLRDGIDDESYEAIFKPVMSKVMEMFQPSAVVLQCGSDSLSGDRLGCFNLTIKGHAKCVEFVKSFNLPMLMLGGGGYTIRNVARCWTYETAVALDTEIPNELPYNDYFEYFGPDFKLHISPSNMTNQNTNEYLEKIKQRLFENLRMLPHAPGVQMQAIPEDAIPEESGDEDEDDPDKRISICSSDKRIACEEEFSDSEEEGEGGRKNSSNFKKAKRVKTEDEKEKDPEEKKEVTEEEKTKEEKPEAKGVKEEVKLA
Chain of HDAC4 (P56524 whole entry): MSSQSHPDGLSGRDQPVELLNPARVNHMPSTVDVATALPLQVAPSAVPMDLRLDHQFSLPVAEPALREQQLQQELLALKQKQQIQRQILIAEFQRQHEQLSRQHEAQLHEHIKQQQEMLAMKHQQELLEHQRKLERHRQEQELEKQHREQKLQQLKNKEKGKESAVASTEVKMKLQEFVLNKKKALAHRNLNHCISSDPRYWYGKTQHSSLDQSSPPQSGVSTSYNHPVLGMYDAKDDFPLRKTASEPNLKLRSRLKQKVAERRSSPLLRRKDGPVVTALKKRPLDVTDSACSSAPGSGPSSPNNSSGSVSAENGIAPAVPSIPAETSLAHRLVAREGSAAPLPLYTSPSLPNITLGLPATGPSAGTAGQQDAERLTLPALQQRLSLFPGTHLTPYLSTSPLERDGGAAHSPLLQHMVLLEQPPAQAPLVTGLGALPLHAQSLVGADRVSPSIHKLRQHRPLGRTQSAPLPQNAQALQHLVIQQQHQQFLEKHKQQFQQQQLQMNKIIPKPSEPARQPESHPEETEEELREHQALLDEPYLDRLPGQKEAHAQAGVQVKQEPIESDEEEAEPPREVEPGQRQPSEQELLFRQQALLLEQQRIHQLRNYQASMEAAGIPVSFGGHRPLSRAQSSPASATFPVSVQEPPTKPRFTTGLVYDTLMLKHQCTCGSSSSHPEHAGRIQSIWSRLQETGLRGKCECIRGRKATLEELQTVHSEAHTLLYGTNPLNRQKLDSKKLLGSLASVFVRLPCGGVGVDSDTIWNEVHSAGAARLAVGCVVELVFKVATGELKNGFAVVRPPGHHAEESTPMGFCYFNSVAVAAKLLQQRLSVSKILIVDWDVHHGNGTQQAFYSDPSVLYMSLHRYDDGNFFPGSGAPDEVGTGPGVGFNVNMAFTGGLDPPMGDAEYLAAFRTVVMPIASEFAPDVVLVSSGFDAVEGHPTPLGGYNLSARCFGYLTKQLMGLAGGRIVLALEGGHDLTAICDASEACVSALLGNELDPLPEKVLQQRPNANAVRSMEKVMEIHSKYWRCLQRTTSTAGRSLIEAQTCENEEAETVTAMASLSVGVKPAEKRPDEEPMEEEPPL
Chain of HDAC8 (Q9BY41 whole entry): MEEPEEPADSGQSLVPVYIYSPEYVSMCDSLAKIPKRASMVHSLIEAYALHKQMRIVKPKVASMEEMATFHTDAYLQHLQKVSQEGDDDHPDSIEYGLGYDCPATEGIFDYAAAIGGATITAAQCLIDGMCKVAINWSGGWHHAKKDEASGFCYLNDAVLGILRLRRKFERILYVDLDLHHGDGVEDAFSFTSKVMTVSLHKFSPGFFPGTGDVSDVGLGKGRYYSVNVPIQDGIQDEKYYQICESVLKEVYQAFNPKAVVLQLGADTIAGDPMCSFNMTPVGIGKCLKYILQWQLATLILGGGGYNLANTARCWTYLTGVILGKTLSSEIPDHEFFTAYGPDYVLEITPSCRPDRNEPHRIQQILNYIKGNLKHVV
Chain of HDAC7 (Q8WUI4 whole entry): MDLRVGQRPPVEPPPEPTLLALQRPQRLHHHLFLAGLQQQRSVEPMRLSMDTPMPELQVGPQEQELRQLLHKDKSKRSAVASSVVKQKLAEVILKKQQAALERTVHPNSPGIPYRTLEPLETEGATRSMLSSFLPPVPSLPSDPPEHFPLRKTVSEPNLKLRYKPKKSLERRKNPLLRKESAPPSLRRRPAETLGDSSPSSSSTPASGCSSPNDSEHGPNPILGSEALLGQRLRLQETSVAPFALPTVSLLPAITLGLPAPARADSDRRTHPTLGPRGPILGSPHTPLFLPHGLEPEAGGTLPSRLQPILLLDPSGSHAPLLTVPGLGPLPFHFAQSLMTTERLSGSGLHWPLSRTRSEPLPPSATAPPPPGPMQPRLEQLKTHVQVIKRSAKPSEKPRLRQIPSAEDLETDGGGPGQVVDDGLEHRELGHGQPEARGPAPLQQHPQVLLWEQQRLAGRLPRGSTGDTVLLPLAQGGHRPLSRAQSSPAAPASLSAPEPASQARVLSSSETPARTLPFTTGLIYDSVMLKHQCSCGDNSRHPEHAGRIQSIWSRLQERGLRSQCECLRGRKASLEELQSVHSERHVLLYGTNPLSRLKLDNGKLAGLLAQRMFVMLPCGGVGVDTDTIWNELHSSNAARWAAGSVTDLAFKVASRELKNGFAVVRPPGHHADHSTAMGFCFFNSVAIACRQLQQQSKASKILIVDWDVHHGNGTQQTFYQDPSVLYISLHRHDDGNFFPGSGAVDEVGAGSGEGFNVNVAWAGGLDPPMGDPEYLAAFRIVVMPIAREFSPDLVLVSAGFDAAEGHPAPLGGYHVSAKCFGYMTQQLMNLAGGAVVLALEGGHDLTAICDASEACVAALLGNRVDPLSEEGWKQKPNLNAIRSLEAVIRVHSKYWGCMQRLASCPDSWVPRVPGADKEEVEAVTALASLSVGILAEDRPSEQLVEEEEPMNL
Chain of HDAC2 (Q92769 whole entry): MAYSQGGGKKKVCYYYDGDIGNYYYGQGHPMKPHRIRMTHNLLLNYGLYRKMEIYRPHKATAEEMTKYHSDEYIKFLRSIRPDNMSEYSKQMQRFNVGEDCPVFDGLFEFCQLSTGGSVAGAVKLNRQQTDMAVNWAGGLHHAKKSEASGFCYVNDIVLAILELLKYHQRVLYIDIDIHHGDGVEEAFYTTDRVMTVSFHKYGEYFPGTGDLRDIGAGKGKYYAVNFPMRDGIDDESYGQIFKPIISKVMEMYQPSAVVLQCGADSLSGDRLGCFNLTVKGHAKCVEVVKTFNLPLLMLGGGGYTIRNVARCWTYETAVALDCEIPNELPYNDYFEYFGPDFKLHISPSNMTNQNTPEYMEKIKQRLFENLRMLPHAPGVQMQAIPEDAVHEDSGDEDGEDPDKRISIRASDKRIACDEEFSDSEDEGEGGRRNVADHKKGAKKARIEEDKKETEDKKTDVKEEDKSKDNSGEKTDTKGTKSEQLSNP

## O=C(CCCCCCC(=O)Nc1ccccc1)NO [SAHA, Suberoylanilide hydroxamic acid, reference compound]
A2780 cells; A2780, read-out: A2780 IC50
  IC50: 27300 nM
HepG2 xenograft; 100 mg/kg/d intragastric, 16 days, HepG2 xenograft
  mean weight of tumours: 0.322 g
HepG2 cells [1]; HepG2, 0.2 μM
  flow cytometry quadrant Q1-LL: 88.86%
  flow cytometry quadrant Q1-LR: 5.30%
  flow cytometry quadrant Q1-UL: 0.05%
  flow cytometry quadrant Q1-UR: 5.79%
HepG2 cells [1]; HepG2, 0.8 μM
  flow cytometry quadrant Q1-LL: 86.03%
  flow cytometry quadrant Q1-LR: 7.73%
  flow cytometry quadrant Q1-UL: 0.01%
  flow cytometry quadrant Q1-UR: 6.23%

## Cn1cc(CCCC(=O)Nc2ccc(C(=O)NO)cc2)c2ccccc21 [Compound I13, 4-(4-(1-Methyl-1H-indol-3-yl)butanamido)-N-hydroxybenzamide]
A549 cells
  IC50: 3150 nM
Calu-3 cells
  IC50: 1260 nM
SPC-A-1 cells
  IC50: 810 nM
H322 cells
  IC50: 14900 nM
H1299 cells
  IC50: 7670 nM
MDA-MB-231 cells
  IC50: 780 nM
MCF-7 cells
  IC50: 6340 nM
MDA-MB-468 cells
  IC50: 1340 nM
LoVo cells
  IC50: 2190 nM
Colo205 cells
  IC50: 2420 nM
A2780 cells; A2780, ovarian cancer, MTT, read-out: A2780 IC50
  IC50: 4600 nM
A2780 cells; ratio of IC50 values
  fold more active than SAHA, A2780 cells: 5.9 fold
SKOV3 cells
  IC50: 1440 nM
MKN45 cells
  IC50: 18200 nM
PNAC-1 cells; pancreatic cancer, MTT
  IC50: 1170 nM
PNAC-1 cells; ratio of IC50 values
  fold more active than SAHA, PNAC-1 cells: 5.6 fold
K562 cells
  IC50: 2870 nM
OPM2 cells
  IC50: 230 nM
Water solubility
  water solubility: good water solubility
HepG2 xenograft; 50 mg/kg/d intragastric, 16 days
  toxic signs in liver and spleen: no obvious toxic signs in liver and spleen were detected
HepG2 xenograft; [4]
  tumour inhibitory ratio: 33.1%
  mean weight of tumours: 0.303 g
HepG2 xenograft; mouse, in vivo
  mice body weight loss: No evidence of mice body weight (measured every two days) loss
U937 cells
  IC50: 930 ± 80 nM
U266 cells
  IC50: 160 ± 40 nM
U266 cells; ratio of IC50 values
  fold more active than SAHA, U266 cells: 5.5 fold
HepG2 cells [2]
  IC50: 1850 ± 310 nM
HepG2 cells [2]; ratio of IC50 values
  fold more active than SAHA, HepG2 cells: 4.7 fold
[3]
  HDACs, percentage inhibition rate (PIR): 82.19 ± 1.60%
HDAC1
  IC50: 13.9 nM
HDAC2
  IC50: 49.9 nM
HDAC3
  IC50: 12.1 nM
HDAC4
  IC50: > 5000 nM
HDAC6
  IC50: 7.71 nM
HDAC7
  IC50: 326 nM
HDAC8
  IC50: 284 nM
HDAC9
  IC50: > 5000 nM
HepG2 cells [1]; HepG2, 0.2 µM, 24 h
  ratio of apoptotic cells: 11.56%
HepG2 cells [1]; HepG2, 0.2 μM
  flow cytometry quadrant Q1-LL: 88.42%
  flow cytometry quadrant Q1-LR: 6.12%
  flow cytometry quadrant Q1-UL: 0.02%
  flow cytometry quadrant Q1-UR: 5.44%
HepG2 cells [1]; HepG2, 0.8 μM
  flow cytometry quadrant Q1-LL: 67.38%
  flow cytometry quadrant Q1-LR: 21.27%
  flow cytometry quadrant Q1-UL: 0.07%
  flow cytometry quadrant Q1-UR: 11.28%

## O=C(CCCc1c[nH]c2ccccc12)Nc1ccc(C(=O)NO)cc1 [Compound I1, 4-(4-(1H-indol-3-yl)butanamido)-N-hydroxybenzamide]
U937 cells
  IC50: 1020 ± 130 nM
U266 cells
  IC50: 840 ± 90 nM
HepG2 cells [2]
  IC50: 8980 ± 160 nM
[3]
  HDACs, percentage inhibition rate (PIR): 53.81 ± 1.60%

## O=C(CCCc1cn(Cc2ccc(F)c(F)c2)c2ccccc12)Nc1ccc(C(=O)NO)cc1 [Compound I6, 4-(4-(1-(3,4-Difluoro-benzyl)-1H-indol-3-yl)butanamido)-N-hydroxybenzamide]
U937 cells
  IC50: 1250 ± 210 nM
U266 cells
  IC50: 820 ± 60 nM
HepG2 cells [2]
  IC50: 7720 ± 340 nM
[3]
  HDACs, percentage inhibition rate (PIR): 16.14 ± 1.07%

## O=C(CCCc1cn(Cc2c(F)cccc2F)c2ccccc12)Nc1ccc(C(=O)NO)cc1 [Compound I10, 4-(4-(1-(2,6-Difluoro-benzyl)-1H-indol-3-yl)butanamido)-N-hydroxybenzamide]
U937 cells
  IC50: 630 ± 70 nM
U266 cells
  IC50: 160 ± 70 nM
HepG2 cells [2]
  IC50: 3390 ± 250 nM
[3]
  HDACs, percentage inhibition rate (PIR): 79.10 ± 4.65%

## O=C(CCCc1cn(Cc2cccc(F)c2)c2ccccc12)Nc1ccc(C(=O)NO)cc1 [Compound I7, 4-(4-(1-(3-Fluoro-benzyl)-1H-indol-3-yl)butanamido)-N-hydroxybenzamide]
U937 cells
  IC50: 950 ± 10 nM
U266 cells
  IC50: 840 ± 60 nM
HepG2 cells [2]
  IC50: 4870 ± 120 nM
[3]
  HDACs, percentage inhibition rate (PIR): 46.17 ± 2.94%

## O=C(CCCc1cn(Cc2ccc(C(F)(F)F)cc2)c2ccccc12)Nc1ccc(C(=O)NO)cc1 [Compound I4, 4-(4-(1-(4-Trifluoromethyl-benzyl)-1H-indol-3-yl)butanamido)-N-hydroxybenzamide]
U937 cells
  IC50: 970 ± 40 nM
U266 cells
  IC50: 960 ± 80 nM
HepG2 cells [2]
  IC50: 4450 ± 250 nM
[3]
  HDACs, percentage inhibition rate (PIR): 68.50 ± 1.22%
